Measured values as given in paper PMC9218685, “Legume Plant Peptides as Sources of Novel Antimicrobial Molecules Against Human Pathogens” (Frontiers in Molecular Biosciences, 2022).
Converted amounts (≈) assume the structure as drawn. “Also recorded” adds a separate entry of the source. Read-outs that look alike come from different tables or passages of the source. Ends that are not written are not given here. Peptide text beside a SMILES is read from it.

How the values were obtained:
[1] = tested on: Acinetobacter baumannii (ATCC 17978); test: microbe, parasite or virus in culture; format: cell-based; conditions: for MBC: read-out: MBC, minimal bactericidal concentration against A. baumannii
In short: (§1)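 MBC read as lowest peptide concentration giving no viable bacteria; ~10^7 log-phase cells, PPB pH 7.4, 3 h treatment, 2-fold dilutions from 25 µM.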

[2] = tested on: E. coli, S. enteritidis, P. aeruginosa, L. monocytogenes, S. aureus, E. faecalis, K. pneumoniae and A. baumannii; test: Antimicrobial activity assay, spectrum over the eight tested pathogenic bacteria; format: cell-based; conditions: 3 h treatment of ~10^7 log phase bacteria, peptides 25 to 0.8 µM; active = MBC ≤25 µM
In short: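 Log-phase bacteria (~10^7) treated 3 h with NCR peptides in potassium-phosphate buffer pH 7.4, two-fold dilutions from 25 µM to 0.8 µM. MBC is the lowest concentration completely eliminating viable bacteria. Strains: E. faecalis ATCC 29212, S. aureus HNCMO112011, L. monocytogenes ATCC 19111, P. aeruginosa ATCC 27853, E. coli ATCC 8739, S. enterica ATCC 13076, K. pneumoniae NCTC 13440, A. baumannii ATCC 17978.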

A. baumannii = test: Scanning electron microscopy of cell morphology; format: cell-based, Acinetobacter baumannii; conditions: 30 min treatment, peptide 1.6 or 3.125 µM as in Figure 3 legend
[3] = tested on: Lambda DNA/HindIII marker; test: Gel retardation assay (DNA aggregation); format: binding; conditions: 100 ng DNA, 5 or 10 µM peptide in water, 30 min at room temperature, 1% agarose gel
C. albicans = test: Scanning electron microscopy of cell morphology; format: cell-based, Candida albicans; conditions: 30 min treatment, peptide 1.6, 3.125 or 25 µM as in Figure 4 legend
Procedure: A. baumannii and C. albicans were grown and treated the same way as for the membrane permeability assay. Cells were then fixed with 2.5% (v/v) glutaraldehyde in phosphate buffered saline (PBS, pH 7.4). 5 μl of the above bacterial and yeast suspensions were spotted on a silicon disk coated with 0.01% Poly-L-Lysine. The filters were washed twice with PBS and gradually dehydrated with ethanol series (30, 50, 70, 80%, and three times 100% ethanol, each for minimum 30 min). The samples were dried with a critical point dryer (K850: Quorum Technologies Ltd.), followed by 12 nm gold coating and observed under a JEOL JSM-7100F/LV scanning electron microscope.

[4] = tested on: Escherichia coli (ATCC 8739); format: cell-based; conditions: ATCC 8739, 3 h
In short: as §1

[5] = tested on: Pseudomonas aeruginosa (ATCC 27853); format: cell-based; conditions: ATCC 27853, 3 h
In short: as §1

[6] = tested on: Klebsiella pneumoniae (NCTC 13440); format: cell-based; conditions: NCTC 13440, 3 h
In short: as §1

[7] = tested on: Staphylococcus aureus (HNCMO112011); format: cell-based; conditions: HNCMO112011, 3 h
In short: as §1

[8] = tested on: Salmonella enterica (ATCC 13076); format: cell-based; conditions: ATCC 13076, 3 h
In short: as §1

[9] = tested on: Listeria monocytogenes (ATCC 19111); format: cell-based; conditions: ATCC 19111, 3 h
In short: as §1

[10] = tested on: Candida albicans W01 strain; test: microbe, parasite or virus in culture; format: cell-based; conditions: read-out: MFC, minimal fungicidal concentration against C. albicans
From the text: The following pathogenic bacterial strains were used: The Gram-positive Enterococcus faecalis (ATCC 29212), Staphylococcus aureus (HNCMO112011), Listeria monocytogenes (ATCC 19111) and the Gram-negative Pseudomonas aeruginosa (ATCC 27853), Escherichia coli (ATCC 8739), Salmonella enterica (ATCC 13076), Klebsiella pneumoniae (NCTC 13440), Acinetobacter baumannii (ATCC 17978) obtained from the ATCC (United States) and NCTC (National Collection of Type Cultures–England). For the antifungal experiment the Candida albicans W01 strain ([Ördögh et al., 2014]) was used. Antimicrobial activities of peptides against ∼10^7 log phase bacteria were tested in Potassium-Phosphate Buffer (PPB, pH 7.4) as described by [Jenei et al. (2020)] while anti-Candida assays were done according to [Szerencsés et al. (2021)]. The two-fold dilution series of peptides ranged from 25 μM to 0.125 μM, while that of the antibiotics ampicillin (Merck) and miconazole (Duchefa Biochemie) from […] to 0.1 μM. The lowest concentration of the antimicrobial agents, which completely eliminated viable bacteria or C. albicans were considered as the minimal bactericidal concentration (MBC) and minimal fungicidal concentration (MFC).

[11] = ~10^7 log phase bacteria, Potassium-Phosphate Buffer pH 7.4, 3 h treatment, two-fold dilution series, lowest concentration completely eliminating viable bacteria
[12] = C. albicans W01, two-fold dilution series, lowest concentration completely eliminating viable C. albicans

Compound	MBC [1, 11] [µM]	Antibacterial spectrum over the eight tested bacterial strains [2]	Morphology of A. baumannii cells by SEM (A. baumannii)	Aggregation of HindIII-digested λ DNA (DNA retained in loading wells) [3]	Morphology of C. albicans cells by SEM (C. albicans)	MBC Escherichia coli [4] [µM]	MBC Pseudomonas aeruginosa [5] [µM]	MBC Klebsiella pneumoniae [6] [µM]	MBC Staphylococcus aureus [7] [µM]	MBC Salmonella enterica [8] [µM]	MBC Listeria monocytogenes [9] [µM]	MBC Acinetobacter baumannii ([1]; ATCC 17978, 3 h) [µM]	MFC ([10]; W01 strain) [µM]	MFC [10, 12] [µM]	MBC ([1]; ATCC 17978, 3 h, pH 7.4) [µM]
CC[C@H](C)[C@H](NC(=O)[C@H](CCCCN)NC(=O)[C@H](CO)NC(=O)[C@H](CCCNC(=N)N)NC(=O)[C@@H]1CCCN1C(=O)[C@H](CS)NC(=O)[C@H](CCCNC(=N)N)NC(=O)[C@H](Cc1ccc(O)cc1)NC(=O)[C@H](CCCCN)NC(=O)[C@H](CCCCN)NC(=O)[C@H](CS)NC(=O)[C@H](CC(=O)O)NC(=O)[C@@H](NC(=O)[C@H](CCCNC(=N)N)NC(=O)[C@@H](NC(=O)[C@H](CCCCN)NC(=O)[C@H](CS)NC(=O)[C@@H](NC(=O)[C@H](CCSC)NC(=O)[C@@H](N)CCCCN)[C@@H](C)CC)[C@@H](C)O)C(C)C)C(=O)N[C@@H](CCCCN)C(=O)N[C@@H](CC(=O)O)C(=O)N[C@@H](CS)C(=O)N[C@H](C(=O)N[C@@H](CCCCN)C(=O)NCC(=O)N[C@@H](Cc1ccc(O)cc1)C(=O)N[C@@H](CS)C(=O)N[C@@H](CCCNC(=N)N)C(=O)N[C@@H](CS)C(=O)N[C@H](C(=O)N[C@@H](CCCNC(=N)N)C(=O)N[C@@H](CCCCN)C(=O)N[C@@H](CCCCN)C(=O)O)C(C)C)C(C)C [CaNCR63] (H-KMICKTRVDCKKYRCPRSKIKDCVKGYCRCVRKK-OH; N-terminus assumed)	6.25 (≈ 25.8 µg/mL)	broad-spectrum activity	rough cell surface, lysis and flattening of the cells	DNA remained in the wells	Flattening of cells; also recorded: aggregation of shrunken cells in a spider net like matrix	–	–	–	–	–	–	–	–	–	–
CC[C@H](C)[C@H](NC(=O)[C@H](CS)NC(=O)[C@H](CCCCN)NC(=O)[C@@H](NC(=O)[C@@H](NC(=O)[C@H](Cc1ccccc1)NC(=O)[C@H](CCCCN)NC(=O)[C@H](CO)NC(=O)[C@H](CO)NC(=O)[C@@H](NC(=O)[C@H](CC(C)C)NC(=O)[C@H](CCCCN)NC(=O)[C@@H]1CCCN1C(=O)[C@H](CS)NC(=O)[C@H](CC(=O)O)NC(=O)[C@H](C)NC(=O)[C@@H](NC(=O)[C@@H](NC(=O)[C@H](CCCNC(=N)N)NC(=O)[C@H](CS)NC(=O)[C@H](CCC(=O)O)NC(=O)[C@@H](NC(=O)[C@H](CO)NC(=O)[C@@H](N)CCC(=O)O)[C@@H](C)CC)[C@@H](C)O)C(C)C)[C@@H](C)CC)C(C)C)[C@@H](C)CC)C(=O)N[C@@H](CCCCN)C(=O)N[C@@H](CCCCN)C(=O)N[C@@H](CCCNC(=N)N)C(=O)N[C@@H](CS)C(=O)N[C@H](C(=O)N[C@@H](C)C(=O)N[C@@H](CCC(N)=O)C(=O)N[C@@H](Cc1ccccc1)C(=O)N[C@@H](Cc1ccccc1)C(=O)N[C@@H](CCCCN)C(=O)O)C(C)C [MsNCR443] (H-ESIECRTVADCPKLISSKFVIKCIKKRCVAQFFK-OH; N-terminus assumed)	6.25 (≈ 24.5 µg/mL)	broad-spectrum activity	Filament-like structures	did not	aggregation of shrunken cells in a spider net like matrix	1.6 (≈ 6.27 µg/mL)	6.25 (≈ 24.5 µg/mL)	12.5 (≈ 49 µg/mL)	12.5 (≈ 49 µg/mL)	25 (≈ 98 µg/mL)	12.5 (≈ 49 µg/mL)	1.6 (≈ 6.27 µg/mL)	6.25 (≈ 24.5 µg/mL)	–	–
CC(C)[C@H](NC(=O)CNC(=O)[C@H](CCCNC(=N)N)NC(=O)[C@H](CCCCN)NC(=O)[C@@H]1CCCN1C(=O)[C@H](CCCCN)NC(=O)[C@@H](N)CS)C(=O)N[C@@H](CC(N)=O)C(=O)N[C@@H](Cc1ccccc1)C(=O)N[C@@H](CCCNC(=N)N)C(=O)N[C@@H](CS)C(=O)N[C@@H](CCCNC(=N)N)C(=O)N[C@@H](CCCCN)C(=O)NCC(=O)N[C@@H](CCCCN)C(=O)N[C@@H](CS)C(=O)N[C@@H](Cc1ccccc1)C(=O)N1CCC[C@H]1C(=O)N[C@H](C(=O)N[C@@H](CCCNC(=N)N)C(N)=O)C(C)C [MsNCR463_16-35] (H-CKPKRGVNFRCRKGKCFPVR-NH2; N-terminus assumed)	1.6 (≈ 3.81 µg/mL)	–	budding of vesicles; also recorded: Filament-like structures	DNA remained in the wells	Flattening of cells	–	–	–	–	–	–	–	3.125 (≈ 7.43 µg/mL)	3.1 (≈ 7.37 µg/mL)	–
CC[C@H](C)[C@H](NC(=O)[C@H](CCCNC(=N)N)NC(=O)[C@H](CCCNC(=N)N)NC(=O)[C@H](CS)NC(=O)[C@H](CCCNC(=N)N)NC(=O)[C@H](CCCNC(=N)N)NC(=O)[C@H](CCC(=O)O)NC(=O)[C@@H](NC(=O)[C@H](CS)NC(=O)[C@H](CC(C)C)NC(=O)[C@@H](NC(=O)[C@H](CCCCN)NC(=O)[C@H](Cc1ccc(O)cc1)NC(=O)[C@@H](NC(=O)[C@H](CCCCN)NC(=O)[C@H](CO)NC(=O)[C@H](CS)NC(=O)[C@H](CCCNC(=N)N)NC(=O)[C@H](Cc1ccccc1)NC(=O)[C@H](CCCNC(=N)N)NC(=O)[C@H](CC(C)C)NC(=O)[C@H](CS)NC(=O)[C@H](CC(=O)O)NC(=O)[C@H](CO)NC(=O)[C@H](CC(=O)O)NC(=O)[C@H](CC(N)=O)NC(=O)[C@H](CC(C)C)NC(=O)[C@H](CS)NC(=O)[C@H](CCCNC(=N)N)NC(=O)[C@H](CC(C)C)NC(=O)CNC(=O)[C@H](CO)NC(=O)[C@@H]1CCCN1)[C@@H](C)CC)C(C)C)[C@@H](C)CC)C(=O)N[C@@H](CCCCN)C(=O)N[C@@H](CCSC)C(=O)N[C@@H](Cc1c[nH]cn1)C(=O)O [PsNCR352]	6.25 (≈ 27.3 µg/mL)	broad-spectrum activity	cell form was preserved	did not	Flattening of cells; also recorded: aggregation of shrunken cells in a spider net like matrix	–	–	–	–	–	–	–	–	–	–
CC[C@H](C)[C@H](NC(=O)[C@H](CCCCN)NC(=O)[C@H](CO)NC(=O)[C@H](CCCNC(=N)N)NC(=O)[C@@H]1CCCN1C(=O)[C@H](CS)NC(=O)[C@H](CCCNC(=N)N)NC(=O)[C@H](Cc1ccc(O)cc1)NC(=O)[C@H](CCCCN)NC(=O)[C@H](CCCCN)NC(=O)[C@H](CS)NC(=O)[C@H](CC(=O)O)NC(=O)[C@@H](NC(=O)[C@H](CCCNC(=N)N)NC(=O)[C@@H](NC(=O)[C@H](CCCCN)NC(=O)[C@H](CS)NC(=O)[C@@H](NC(=O)[C@H](CCSC)NC(=O)[C@@H](N)CCCCN)[C@@H](C)CC)[C@@H](C)O)C(C)C)C(N)=O [CaNCR63_1-20] (H-KMICKTRVDCKKYRCPRSKI-NH2; N-terminus assumed)	–	–	rough cell surface, lysis and flattening of the cells	less efficient than either the full-length peptide or the C-terminal CaNCR63_15-34	most similar to the control	–	–	–	–	–	–	–	25 (≈ 61.4 µg/mL)	–	6.25 (≈ 15.4 µg/mL)
YNLKYCTNDKDCPTMMCFPPDVSKCVWKTCYCVQKHKKKLKKKKKLTFNM-OH (cysteines drawn unpaired) [PsNCR349]	–	broad-spectrum activity	Only dead cells were visible	DNA remained in the wells	Flattening of cells	–	–	–	–	–	–	–	–	3.125	–
